Reference: article PMC9845330 (Communications Biology, 2023)
Non-standard residues stand in square brackets, D forms with d. Residues, ends and D or L forms follow the SMILES beside them. *: point of attachment. X1 = O=C(CCCC[C@@H]1SC[C@@H]2NC(=O)N[C@@H]21)NCCCOCCOCCOCCCN*; PEG12 = NCCOCCOCCOCCOCCOCCOCCOCCOCCOCCOCCOCCOCCC(=O)O

Experiments:
H1993 cells = assay: Cell internalization by flow cytometry, absolute uptake (molecules per cell); type: cell-based, human; conditions: for Molecules Internalized Per Cell: Average
Excerpt: (§1) Optimizing MGS4 as a monomer is efficient but the optimal valency of the truncated peptide may be different than that of the full-length peptide. The peptide was synthesized as a monomer (MGS4_V8), dimer (MGS4_V9), and tetramer (MGS4_V10). To obtain quantitative data, we moved from measuring the relative fluorescence of dye-labeled peptide to the determination of the average number of dye molecules internalized per cell. […] The dimer MGS4_V9 has an EC50 7-fold lower indicating there is a synergistic effect in going from a monomer to a dimer (Fig. 2a and Table 2). However, there is only a 2-fold decrease in going from a dimer to a tetrameric peptide (MGS4_V10). We also calculated the EC50 on three other NSCLC cell lines (Table 2 and Supplementary Figure 3). […] The average number of peptides internalized per cell at saturating conditions varies, with H1993 cells internalizing the highest number of peptides at all three valencies (Table 2). This is likely due to differing levels of receptor expression on the cell type. The average molecules internalized at 50 nM in one hour follows the same trend (Fig. 2b).
(§2) Biotinylated peptide was conjugated to streptavidin-R-phycoerythrin or streptavidin-Alexa Fluor 647 (1:1 molar ratio) for 30 min. The open binding sites on streptavidin were quenched with RPMI 1640 and diluted to the indicated concentration. Tumor cells were grown to 90% confluency in a 12 well plate, then incubated with 500 µl peptide-dye conjugate at 37 °C. After 1 h, peptide was removed, and the cells were washed 3x with PBS (137 mM NaCl, 2.7 mM KCl, 10 mM Na2HPO4, 1.8 mM KH2PO4, pH 7.4), 2x with 0.1 M HCl-glycine pH2.2 in 0.9% NaCl, and 1x PBS rinse. Cells were removed by trypsinization. Flow cytometry was performed on a BD FACSCelesta, and data were analyzed on Flowing software. Cells were gated based on the forward and side scatter to include only viable cells and a minimum of 10,000 events were counted. A region containing <5% of the cells in the negative control was established, and relative peptide uptake by the mean fluorescence intensity of that population. For absolute peptide uptake per cell, a standard curve was generated using Quantum™ Alexa Fluor 647 microspheres (Bangs Laboratory, Fishers, IN). A representative linear regression showing the correlation of molecule equivalents soluble fluorophores (MESF) vs the mean fluorescence intensity (MFI) is shown in Supplemental Figure 6. Cells were gated based on the forward and side scatter to include only viable cells and a minimum of 10,000 events were counted. MFI was determined at 50% at peak height. Molecules internalized per cell were determined by the standard curve relating MESF to MFI and divided by the number dye molecules/MGS conjugate. An example is shown in supplemental Figure 7. GraphPad Prism® was used for non-linear regression curve fitting to calculate an EC50. Parameters and statistical analysis are provided (Supplementary Tables 2–6). Experiments were repeated a minimum of three times.
(§3) For all EC50 determinations, each peptide variant was tested on the indicated cell line with a minimum of 3 biological replicates and analyzed individually by flow cytometry. The standard error measurement for each concentration is indicated by error bars in the figures. For experiments in which absolute number of molecules internalized was measured at different concentrations, EC50 were determined by GraphPad Prism® using nonlinear regression curve fitting for log(agonist) vs. response–Variable slope (four parameters). For the truncation experiments, EC50 were determined using one-site-specific binding. Similarly, IC50s were calculated using GraphPad Prism® using log(agonist) vs. response–Variable slope (four parameters). A minimum of four biological replicates were performed for each variant and cell line. Data for individual experiments are included in supplementary files. Parameters and statistical analysis are provided in Supplementary Tables 2–7. […]

H2009 cells = assay: as above; type: cell-based, human; conditions: for Molecules Internalized Per Cell: Average
Excerpt: as §1, §2, §3

H358 cells = assay: as above; type: cell-based, human; conditions: for Molecules Internalized Per Cell: Average
Excerpt: as §1, §2, §3

CC(=O)N[C@@H](Cc1ccccc1)C(=O)N[C@@H](Cc1c[nH]cn1)C(=O)N[C@@H](C)C(=O)N[C@H](C(=O)N1CCC[C@H]1C(=O)N[C@@H](CCC(N)=O)C(=O)N[C@@H](CO)C(=O)N[C@@H](Cc1ccccc1)C(=O)N[C@@H](Cc1ccc(O)cc1)C(=O)N[C@H](C(=O)NCCOCCOCCOCCOCCOCCOCCOCCOCCOCCOCCOCCOCCC(=O)N[C@@H](CCC(=O)NCCCOCCOCCOCCCNC(=O)CCCC[C@@H]1SC[C@@H]2NC(=O)N[C@@H]21)C(N)=O)[C@@H](C)O)C(C)C [MGS4_V8] (Ac-FHAVPQSFYT[PEG12]E(X1)-NH2)
Molecules Internalized Per Cell (H1993 cells; 0.01 nM): 0 | Molecules Internalized Per Cell (H1993 cells; 1 nM): 57 | Molecules Internalized Per Cell (H1993 cells; 10 nM): 3584 | Molecules Internalized Per Cell (H1993 cells; 20 nM): 36850 | Molecules Internalized Per Cell (H1993 cells; 30 nM): 42262 | Molecules Internalized Per Cell (H1993 cells; 40 nM): 55296 | Molecules Internalized Per Cell (H1993 cells; 50 nM): 88510 | Molecules Internalized Per Cell (H1993 cells; 60 nM): 76327 | Saturation (molecules) (H1993 cells; H1993 Cells): 119,000 ± 57,500 molecules | HillSlope (H1993 cells; Supplementary Table 6): 1.706 | LogIC50 (H1993 cells; Supplementary Table 6): -7.427 | Top (H1993 cells; Supplementary Table 6): 118643 | Molecules Internalized Per Cell (H2009 cells; 1 nM): 0 | Molecules Internalized Per Cell (H2009 cells; 10 nM): 1006 | Molecules Internalized Per Cell (H2009 cells; 20 nM): 3516 | Molecules Internalized Per Cell (H2009 cells; 30 nM): 15550 | Molecules Internalized Per Cell (H2009 cells; 40 nM): 22008 | Molecules Internalized Per Cell (H2009 cells; 50 nM): 28764 | Molecules Internalized Per Cell (H2009 cells; 60 nM): 30384 | Molecules Internalized Per Cell (H2009 cells; 80 nM): 38906 | Saturation (molecules) (H2009 cells; H2009 Cells): 40,600 ± 2630 molecules | HillSlope (H2009 cells; Supplementary Table 4): 3.175 | LogIC50 (H2009 cells; Supplementary Table 4): -7.424 | Top (H2009 cells; Supplementary Table 4): 40633 | Molecules Internalized Per Cell (H358 cells; 0.01 nM): 0 | Molecules Internalized Per Cell (H358 cells; 0.1 nM): 11 | Molecules Internalized Per Cell (H358 cells; 1 nM): 140 | Molecules Internalized Per Cell (H358 cells; 5 nM): 2481 | Molecules Internalized Per Cell (H358 cells; 10 nM): 4840 | Molecules Internalized Per Cell (H358 cells; 20 nM): 25103 | Molecules Internalized Per Cell (H358 cells; 30 nM): 36064 | Molecules Internalized Per Cell (H358 cells; 40 nM): 47392 | Molecules Internalized Per Cell (H358 cells; 50 nM): 58761 | Molecules Internalized Per Cell (H358 cells; 60 nM): 66918 | Molecules Internalized Per Cell (H358 cells; 80 nM): 68326 | Saturation (molecules) (H358 cells; H358 Cells): 85,500 ± 39600 molecules | HillSlope (H358 cells; Supplementary Table 5): 1.829 | LogIC50 (H358 cells; Supplementary Table 5): -7.470 | Top (H358 cells; Supplementary Table 5): 85477 | stable in human serum for: > 48 h
